The values below come from patent publication US20100216795A1, “TNIK INHIBITOR AND THE USE” (priority 2008, published 2010).

pIC50: −log10 of the molar value.

The term pIC50 denotes the IC50 on a negative log10 scale, so that one unit is a factor of ten.

The target of the first data set is T1, human TNIK (N-terminal segment, TNIK_N) (Homo sapiens, UniProt Q9UKE5).
T1 construct: made in house; host or cells: Sf21 insect cells (baculovirus)
T1 sequence (Q9UKE5 1-314): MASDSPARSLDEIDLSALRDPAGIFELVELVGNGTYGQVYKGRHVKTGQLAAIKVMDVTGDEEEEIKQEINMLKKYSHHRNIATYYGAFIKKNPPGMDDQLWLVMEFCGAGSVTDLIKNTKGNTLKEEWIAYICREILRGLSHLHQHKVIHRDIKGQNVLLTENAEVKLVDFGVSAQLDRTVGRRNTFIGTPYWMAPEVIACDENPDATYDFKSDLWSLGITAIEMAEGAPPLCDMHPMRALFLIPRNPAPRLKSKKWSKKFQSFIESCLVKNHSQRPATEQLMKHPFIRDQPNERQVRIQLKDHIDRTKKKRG
Kind of data set: TNIK kinase assay (mobility shift). It is filed as biochemical. To be noted: 25 μM ATP, 1 h at room temperature. The source says: A cDNA encoding the N-terminal segment (TNIK_N, residues 1-314) containing the kinase domain of human TNIK (NM_015028.1) was amplified from cDNA mixture synthesized from human tissue (Biochain) by PCR using the following primers: 5′-[…]-3′ ([SEQ ID NO:1]: forward primer, the underlined nucleotides indicates the location of a EheI site); 5′-[…]-3′ ([SEQ ID NO:2]: reverse primer, the underlined nucleotides indicates the location of a NotI site). The cDNA was subcloned into baculovirus transfer vector pFastBac_GSTb that includes protease cleavage site and glutathione S-transferase purification tag (GST-tag). The plasmid was purified and the insertion of the pFastBac_GSTb-TNIK_N was confirmed by DNA sequencing. Then E. coli DH10Bac competent cells were transformed with the plasmid to prepare the recombinant bacmid according to the instructions for the Bac-to-Bac™ baculovirus expression systems (Invitrogen). The Sf9 cells were transfected with the recombinant bacmid containing pFastBac_GSTb-TNIK_N using Cellfectin Reagent (Invitrogen) in SF-900II serum free media (Invitrogen). The viral supernatant was collected from the medium 72 h after transfection. The virus was amplified three times by infecting actively growing Sf9 or Sf21 cells in Grace's insect media (Invitrogen) supplemented with 10% FCS and an antibiotic-antimycotic reagent (Invitrogen) for 72 h at 27° C. in T-flask or roller bottles. The titer of amplified TNIK_N virus was estimated at 2.36×10^8 pfu/ml by using BacPAK™ Baculovirus Rapid Titer kit (Clontech).
Log-phase Sf21 cells (2×10^6 cells/ml) in the Grace's insect media were infected with the recombinant baculovirus at MOI of 3.0 and incubated in roller bottles (250 ml media per bottle) for 72 h at 27° C., after which, the cells were collected by centrifugation, and the cell pellet washed with cold PBS and kept at −80° C. until purification. The following purification procedures were carried out at 4° C. The frozen cells were thawed on ice and lysed in lysis buffer (50 mM Tris-HCl, pH 7.5, 150 mM NaCl, 1% Nonidet P-40, 5 mM DTT, 0.5 mM EDTA, 0.5 mM EGTA) supplemented with 1 mM phenylmethansulfonylfluoride, 2 μg/ml leupeptin, 2 μg/ml aprotinin, 1 mM NaF, 100 μM sodium orthovanadate, and 1 μM cantharidin by sonication. The suspended lysate was cleared by centrifugation at 9000 g for 20 min and the supernatant was incubated for 1 h with glutathione Sepharose beads (GE Healthcare). The beads were suspended in buffer-H (50 mM Tris-HCl, pH 7.5, 1 M NaCl, 1 mM DTT, 0.5 mM EDTA, 0.5 mM EGTA and 0.05% Brij35) and washed with buffer-H followed by buffer-L (50 mM Tris-HCl, pH 7.5, 150 mM NaCl, 1 mM DTT, 0.5 mM EDTA, 0.5 mM EGTA, 0.05% Brij35) in an Econo-pack column (BIO-RAD). The bound TNIK_N was eluted with elution buffer (50 mM Tris-HCl, pH 8.0, 150 mM NaCl, 1 mM DTT, 10% glycerol, 0.5 mM EDTA, 0.5 mM EGTA and 5 mM reduced glutathione). The eluted fractions were collected and determined the protein concentration by Bradford reagent (BIO-RAD). The TNIK_N fractions were pooled and desalted using 10DG column (BIORAD) equilibrated with the storage buffer (50 mM Tris-HCl, pH 7.5, 150 mM NaCl, 1 mM DTT, 10% glycerol, 0.05% Brij35). The purified TNIK_N was characterized by electrophoresis using 4-20% polyacrylamide gels and matrix-assisted laser desorption/ionization reflection time-of-flight (MALDI-TOF) mass spectrometry on a Voyager-DE RP MALDI/TOF (Applied Biosystems). TNIK_N was confirmed by the molecular weight and MASCOT Peptide Mass Fingerprint.
The kinase assays were conducted in a 20 μl volume using 384-well plates (Greiner). The reaction mixture consists of compound or vehicle (1% DMSO), 0.08 ng/μl TNIK_N, 1 μM FITC-labeled substrate peptides, FITC-x-Lys-Tyr-Lys-Thr-Leu-Arg-Gln ([SEQ ID NO.3], x: ε-aminocaproic acid), 20 mM Hepes, pH 7.5, 0.01% Triton X-100, 5 mM MgCl2, 25 μM ATP and 2 mM DTT. As blank, TNIK_N was excluded from the reaction mixture of vehicle (1% DMSO). […]
Consider `COc1ccc(Nc2nc(C(N)=O)c(NC(=O)c3ccc(NC(=O)CN4CCN(C)CC4)cc3)s2)cc1` [Compound A42, 2-(4-methoxyphenylamino)-5-{4-[2-(4-methyl-piperazin-1-yl)acetamido]benzamido}thiazole-4-carboxamide], for which the pIC50 is 7.74.

For `COc1ccc(Nc2nc(C(N)=O)c(NC(=O)c3ccc(N4CCC(CO)CC4)cc3)s2)cc1` [Compound A43, 5-{4-[4-(hydroxymethyl)piperidin-1-yl]benzamido}-2-(4-methoxyphenylamino)thiazole-4-carboxamide], the pIC50 was 7.89. With `COc1ccc(Nc2nc(C(N)=O)c(NC(=O)c3ccc(CN4CCN(C)CC4)cc3)s2)cc1` [Compound A44], the pIC50 was 7.96. Still for that read-out and setting: with `COc1ccc(Nc2nc(C(N)=O)c(NC(=O)c3ccc(OCCN4CCCC4)cc3)s2)cc1` [Compound A45, 2-(4-methoxyphenylamino)-5-{4-[2-(pyrrolidin-1-yl)ethoxy]benzamido}thiazole-4-carboxamide] the figure was 7.66; with `COc1ccc(Nc2nc(C(N)=O)c(NC(=O)c3ccc(OC)cc3)s2)cc1` [Compound A46, 5-(4-methoxybenzamido)-2-(4-methoxyphenyl-amino)thiazole-4-carboxamide], 7.80; with `COc1ccc(C(=O)Nc2sc(Nc3ccncc3)nc2C(N)=O)cc1` [Compound A47, 5-(4-methoxybenzamido)-2-(pyridin-4-ylamino) thiazole-4-carboxamide], 8.52. On the same count and under the same terms, the result for `COc1ccc(Nc2nc(C(N)=O)c(NC(=O)c3ccc(N(S(C)(=O)=O)S(C)(=O)=O)cc3)s2)cc1` [Compound A48, 2-(4-methoxyphenylamino)-5-{4-[N-(methyl-sulfonyl)methylsulfonamido]benzamido} thiazole-4-carboxamide] reads 8.22; that for `COc1ccc(Nc2nc(C(N)=O)c(NC(=O)c3ccc(NCCN4CCCCC4)cc3)s2)cc1` [Compound A49, 2-(4-methoxyphenylamino)-5-{4-[2-(piperidin-1-yl)ethylamino]benzamido}thiazole-4-carboxamide], 8.30; that for `COc1ccc(Nc2nc(C(N)=O)c(NC(=O)c3ccc(NCCc4ccncc4)cc3)s2)cc1` [Compound A55, 2-(4-methoxyphenylamino)-5-{4-[2-(pyridin-4-yl)ethylamino]benzamido}thiazole-4-carboxamide], 8.00. On the same count and under the same terms, the result for `COc1ccc(C(=O)Nc2sc(Nc3cncnc3)nc2C(N)=O)cc1` [Compound A69, 5-(4-methoxybenzamido)-2-(pyrimidin-5-ylamino)thiazole-4-carboxamide] reads 8.15; that for `NC(=O)c1nc(Nc2cccnc2)sc1NC(=O)c1ccc(NCCO)cc1` [Compound A72, 5-[4-(2-hydroxyethylamino)benzamido]-2-(pyridin-3-ylamino)thiazole-4-carboxamide], 8.40; that for `CN1CCN(c2ccc(C(=O)Nc3sc(Nc4cccnc4)nc3C(N)=O)cc2)CC1` [Compound A74, 5-[4-(4-methylpiperazin-1-yl)benzamido]-2-(pyridin-3-ylamino)thiazole-4-carboxamide], 8.15. With `NC(=O)c1nc(Nc2ccncc2)sc1NC(=O)c1ccc(F)cc1` [Compound A76, 5-(4-fluorobenzamido)-2-(pyridin-4-ylamino) thiazole-4-carboxamide], the pIC50 was 8.15.

Take `NC(=O)c1nc(Nc2cccnc2)sc1NC(=O)c1ccc(NCCc2ccncc2)cc1` [Compound A84, 2-(pyridin-3-ylamino)-5-{4-[2-(pyridin-4-yl)ethyl-amino]benzamido}thiazole-4-carboxamide]: the pIC50 is 8.70. As to `COc1ccc(C(=O)Nc2sc(Nc3ccnc(F)c3)nc2C(N)=O)cc1` [Compound A92, 2-(2-fluoropyridin-4-ylamino)-5-(4-methoxy-benzamido)thiazole-4-carboxamide], the negative logarithm of the IC50 (pIC50) was 8.52. Still for that read-out and setting: with `COc1ccc(C(=O)Nc2sc(Nc3ccc(CO)cc3)nc2C(N)=O)cc1` [Compound A102, 2-[4-(hydroxymethyl)phenylamino]-5-(4-methoxy-benzamido)thiazole-4-carboxamide] the figure was 8.22; with `COc1ccc(Nc2nc(C(N)=O)c(NC(=O)c3ccc(N)c(N)c3)s2)cc1` [Compound A103, 5-(3,4-diaminobenzamido)-2-(4-methoxyphenyl-amino)thiazole-4-carboxamide], 8.00.

Another data set has as its system HCT-116 cells. The data set is described as follows: HCT-116 xenograft growth after intratumoral siRNA. It is filed as in vivo, BALB/c nu/nu nude mice. To be noted: HCT-116 tumours, 18 days after the injection of siRNA. Here is the method: We next examined the effects of TNIK on the growth of human colon cancer cells in vivo (FIG. 2). HCT-116 cells were implanted in the flank of immunodeficient mice. One week after the inoculation, siRNA against TNIK (12 or 13) mixed with atelocollagen (Takeshita, F. et al. Efficient delivery of small interfering RNA to bone-metastatic tumors by using atelocollagen in vivo. Proc Natl Acad Sci USA 102, 12177 (2005)) was injected directly into the tumours (224.5±8.9 mm^3 in size). Three days after the siRNA injection, some tumours were excised and the silencing of TNIK mRNA was confirmed by real-time PCR (FIG. 2b). The volume of xenografts was monitored for 18 days after siRNA injection (FIG. 2a). […] We observed similar regression of established tumours after a single injection of siRNA against TNIK in two other colorectal cancer cell lines, DLD1 and WiDr (FIGS. 3 and 4).
a, HCT-116 cells were inoculated into BALB/c nu/nu nude mice subcutaneously. The developed tumours were not treated, or treated with only atelocollagen, control RNA (X or IX) or siRNA against TNIK (12 or 13). The volume of tumours (n=8 per group) was monitored as indicated. #, P<0.001 (Mann-Whitney U-test); Bars, SE; N.S., not significant. b, mRNA expression of TNIK in tumours injected with siRNA (n=3 per group). c, d, Representative appearance of mice and excised tumours 18 days after the injection of siRNA. Columns indicate the average weight of excised tumours (n=8 per group). $, P<0.005 (Mann-Whitney U-test); Bars, SE.
5×10^6 HCT-116, DLD1 or WiDr cells suspended in 0.1 ml of PBS were subcutaneously inoculated into the flanks of 5-week-old female BALB/c nu/nu nude mice (SLC, Tokyo, Japan). One week later the developed tumours were treated with siRNA together with atelocollagen (AteloGene; KOKEN, Tokyo, Japan) (Takeshita, F. et al. Efficient delivery of small interfering RNA to bone-metastatic tumors by using atelocollagen in vivo. Proc Natl Acad Sci USA 102, 12177 (2005)). The final concentration of siRNA was 30 μM and that of atelocollagen was 0.5%. A 0.2-ml volume of siRNA solution was injected directly into each tumour. Tumour volume was determined as V=A×[…], where A and B represent the largest and smallest dimensions (Bergers, G et al. Effects of angiogenesis inhibitors on multistage carcinogenesis in mice. Science 284, 808 (1999)).
Consider “siRNA against TNIK (12): small interfering RNA against TNIK, sense 5′-CGACAUACCCAGACUGAUAUU-3′, synthesized by Dharmacon (antisense UAUCAGUCUGGGUAUGUCGUU; listed as RNA, chemistry not given here)”, for which the “excised tumours versus not treated, atelocollagen only or control RNA” value was “significantly smaller”.

Staying with this data set, now noted: HCT-116 tumours, single injection of siRNA with atelocollagen into the tumour, monitored 18 days.
On to “siRNA against TNIK (12): small interfering RNA against TNIK, sense 5′-CGACAUACCCAGACUGAUAUU-3′, synthesized by Dharmacon (antisense UAUCAGUCUGGGUAUGUCGUU; listed as RNA, chemistry not given here)”, for which the volume of xenografts entry is on record as “regressed almost completely”.
